Assay results reported in patent US7375246B2, “Sulfhydral containing compounds and methods of using the same” (Regenesis Bioremediation Products Inc., priority 2003, dated 2008).

Tests used:
[1] = Example E: Aquifer Simulation Vessel (ASV), chromated copper arsenate, copper; conditions: for Copper concentration in aqueous phase: initial 4.2
Procedure: (§1) A tube 6 foot long and 6 inches in diameter was packed with soil. These tubes simulate the flow in an aquifer below ground and are referred to as Aquifer Simulation Vessels (ASV). The ASV has sample ports along the bottom at every 6-inch interval to allow sampling as water flows through the tube. Contaminated water is allowed to flow through the tube. As the water flows through the tube, the water within the space pockets of the soil is tested and when the soil with the tube is fully contaminated the flow was stopped. The soil pockets (pores) were full of contaminants from the water. At that point either ferrous cysteinate or sorbitol hexacysteinate was injected just ahead of the first port with no flow in the system.
(§2) A separate tube was used for each of the two materials tested.
(§3) Initially the soil pockets (pores) were filled with this solution as described. Either ferrous cysteinate or sorbitol hexacysteinate was injected into the soil containing tube. The concentration of contaminants at each sample port was measured over a 30 day period. The system was then flushed with fresh water to determine if the removed metals are “redistributed” or “redissolved” in the water (i.e. so called “rebound”). This measure determined the ability of the compounds to permanently remove the contaminants.

[2] = Example E: Aquifer Simulation Vessel (ASV), chromated copper arsenate, arsenic; conditions: for Arsenic concentration in aqueous phase: initial 25.7
Procedure: as §1, §2, §3

[3] = Example C: reduction of As in arsenate solution in a flask, atomic absorption
Procedure: 10.02 grams of ferrous cysteinate synthesized as in 1.4 were added to a 250 ml. flask which contained 150 ml of 32 ppm of As initially added as arsenic trioxide. The 32-ppm solution of As was prepared by using 0.08 grams of arsenic trioxide to which 3.0 grams of concentrated hydrochloric acid was added. This prepared the soluble arsenate. The solution was heated and diluted to one liter with distilled water. The As concentration was measured over time using atomic absorption.

[4] = Example D: two-flask liquid/soil system with chromated copper arsenate, arsenic
Procedure: (§4) A system which had two connected 250 ml flasks, one with liquid and soil and the other with a reservoir of liquid, was used. The liquid flowed between the 2 flasks. Samples were taken from the flask without the soil to determine the amount of Cu, As and Cr present in the aqueous phase. The liquid in the flask without soil was sampled periodically and the Cu, Cr and As content measured by Atomic Absorption Spectroscopy. A unimolar ratio of copper chromate and copper arsenate was used as being representative of chromated copper arsenate. The level of contamination was selected so that the As component was about 30 mg/L. After the system was set up the As component was determined to be 28.3 mg/L. The Cu and Cr were approximately 25 mg/L and 15.5 mg/L, respectively.
(§5) Ferrous cysteinate and sorbitol tricysteinate were both used in this system.

[5] = Example E: Aquifer Simulation Vessel (ASV), chromated copper arsenate, chromium; conditions: for Chromium concentration in aqueous phase / Cr concentration: initial 15
Procedure: as §1, §2, §3

[6] = Example D: two-flask liquid/soil system with chromated copper arsenate, chromium
Procedure: as §4, §5

[7] = Example D: two-flask liquid/soil system with chromated copper arsenate, copper
Procedure: as §4, §5

ferrous cysteinate [FeC]
remediation of Cu in ASV [1]: effective remediation | Copper concentration in aqueous phase ([1]; Port 1, Day 5): 0.3 mg/L | Copper concentration in aqueous phase ([1]; Port 1, Day 8): 0.2 mg/L | Copper concentration in aqueous phase ([1]; Port 1, Day 13): 0.1 mg/L | Copper concentration in aqueous phase ([1]; Port 1, Day 16): 0.1 mg/L | Copper concentration in aqueous phase ([1]; Port 1, Day 20): 0.0 mg/L | Copper concentration in aqueous phase ([1]; Port 1, Day 22): 0.1 mg/L | Copper concentration in aqueous phase ([1]; Port 1, Day 27): 0.0 mg/L | Copper concentration in aqueous phase ([1]; Port 5, Day 5): 0.3 mg/L | Copper concentration in aqueous phase ([1]; Port 5, Day 8): 0.2 mg/L | Copper concentration in aqueous phase ([1]; Port 5, Day 13): 0.1 mg/L | Copper concentration in aqueous phase ([1]; Port 5, Day 16): 0.0 mg/L | Copper concentration in aqueous phase ([1]; Port 5, Day 20): 0.0 mg/L | Copper concentration in aqueous phase ([1]; Port 5, Day 22): 0.0 mg/L | Copper concentration in aqueous phase ([1]; Port 5, Day 27): 0.0 mg/L | Copper concentration in aqueous phase ([1]; Port 10, Day 5): 0.1 mg/L | Copper concentration in aqueous phase ([1]; Port 10, Day 8): 0.1 mg/L | Copper concentration in aqueous phase ([1]; Port 10, Day 13): 0.0 mg/L | Copper concentration in aqueous phase ([1]; Port 10, Day 16): 0.0 mg/L | Copper concentration in aqueous phase ([1]; Port 10, Day 20): 0.0 mg/L | Copper concentration in aqueous phase ([1]; Port 10, Day 22): 0.0 mg/L | Copper concentration in aqueous phase ([1]; Port 10, Day 27): 0.0 mg/L | remediation of As in ASV [2]: effective remediation | Arsenic concentration in aqueous phase ([2]; Port 1, Day 5): 25.8 mg/L | Arsenic concentration in aqueous phase ([2]; Port 1, Day 8): 10.9 mg/L | Arsenic concentration in aqueous phase ([2]; Port 1, Day 13): 6.8 mg/L | Arsenic concentration in aqueous phase ([2]; Port 1, Day 16): 3.6 mg/L | Arsenic concentration in aqueous phase ([2]; Port 1, Day 20): 3.3 mg/L | Arsenic concentration in aqueous phase ([2]; Port 1, Day 22): 1.1 mg/L | Arsenic concentration in aqueous phase ([2]; Port 1, Day 27): 0.6 mg/L | Arsenic concentration in aqueous phase ([2]; Port 5, Day 5): 23.1 mg/L | Arsenic concentration in aqueous phase ([2]; Port 5, Day 8): 9.8 mg/L | Arsenic concentration in aqueous phase ([2]; Port 5, Day 13): 6.8 mg/L | Arsenic concentration in aqueous phase ([2]; Port 5, Day 16): 3.5 mg/L | Arsenic concentration in aqueous phase ([2]; Port 5, Day 20): 3.0 mg/L | Arsenic concentration in aqueous phase ([2]; Port 5, Day 22): 0.9 mg/L | Arsenic concentration in aqueous phase ([2]; Port 5, Day 27): 0.5 mg/L | Arsenic concentration in aqueous phase ([2]; Port 10, Day 5): 23.9 mg/L | Arsenic concentration in aqueous phase ([2]; Port 10, Day 8): 7.7 mg/L | Arsenic concentration in aqueous phase ([2]; Port 10, Day 13): 5.4 mg/L | Arsenic concentration in aqueous phase ([2]; Port 10, Day 16): 2.8 mg/L | Arsenic concentration in aqueous phase ([2]; Port 10, Day 20): 2.9 mg/L | Arsenic concentration in aqueous phase ([2]; Port 10, Day 22): 0.8 mg/L | Arsenic concentration in aqueous phase ([2]; Port 10, Day 27): 0.5 mg/L | time in which the concentration of As was reduced by half ([3]; 10.02 grams in 150 ml of 32 ppm As): less than 45 hours | concentration of As after treatment ([3]; from 32 ppm, in less than 45 hours): less than 15 ppm | remediation of arsenic in combined solution [4]: remediated | remediation of Cr in ASV [5]: effective remediation | Chromium concentration in aqueous phase ([5]; Port 1, Day 8): 5.8 mg/L | Chromium concentration in aqueous phase ([5]; Port 1, Day 13): 3.4 mg/L | Chromium concentration in aqueous phase ([5]; Port 1, Day 16): 1.4 mg/L | Chromium concentration in aqueous phase ([5]; Port 1, Day 20): 0.7 mg/L | Chromium concentration in aqueous phase ([5]; Port 1, Day 22): 1.1 mg/L | Chromium concentration in aqueous phase ([5]; Port 1, Day 27): 1.0 mg/L | Chromium concentration in aqueous phase ([5]; Port 5, Day 8): 4.8 mg/L | Chromium concentration in aqueous phase ([5]; Port 5, Day 13): 1.3 mg/L | Chromium concentration in aqueous phase ([5]; Port 5, Day 16): 0.9 mg/L | Chromium concentration in aqueous phase ([5]; Port 5, Day 20): 0.6 mg/L | Chromium concentration in aqueous phase ([5]; Port 5, Day 22): 1.0 mg/L | Chromium concentration in aqueous phase ([5]; Port 5, Day 27): 0.9 mg/L | Chromium concentration in aqueous phase ([5]; Port 10, Day 8): 5.2 mg/L | Chromium concentration in aqueous phase ([5]; Port 10, Day 13): 0.8 mg/L | Chromium concentration in aqueous phase ([5]; Port 10, Day 16): 0.6 mg/L | Chromium concentration in aqueous phase ([5]; Port 10, Day 20): 0.5 mg/L | Chromium concentration in aqueous phase ([5]; Port 10, Day 22): 0.9 mg/L | Chromium concentration in aqueous phase ([5]; Port 10, Day 27): 0.7 mg/L | Cr concentration ([5]; port 1, day 30): 0.7 mg/L | Cr concentration ([5]; port 5, day 30): 0.4 mg/L | Cr concentration ([5]; port 10, day 30): 0.4 mg/L | remediation of chromium in combined solution [6]: remediated | remediation of copper in combined solution [7]: remediated

sorbitol tricysteinate
remediation of arsenic in combined solution [4]: remediated | remediation of chromium in combined solution [6]: remediated | remediation of copper in combined solution [7]: remediated
